The values that follow come from article PMC9959553, “Promising Antifungal Molecules against Mucormycosis Agents Identified from Pandemic Response Box®: In Vitro and In Silico Analyses” (Journal of Fungi, 2023).

Converted amounts (≈) assume the structure as drawn. Read-outs that look alike come from different tables or passages of the source.

The test system of one data set is R. oryzae UCP1295. In words: Screening of the Pandemic Response Box library at 5 µM. Type of data set: cell-based, Rhizopus oryzae. The note with it: for inhibition at 5 µM: Rhizopus arrhizus, UCP1295, 48 h; for Viability Inhibition (XTT): XTT reduction. A digest of the protocol: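 Growth inhibition was read at 600 nm after conidia (2 × 10^5/mL) grew 48 h at 37 °C, 5% CO2, with 5 μM compound in glucose-supplemented (2%), MOPS-buffered RPMI (pH 7.2). Controls were posaconazole at 5 μM and 1% DMSO. The selection cut-off was at least 60% inhibition.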

Data set [1] deals with R. oryzae. In words: Antifungal susceptibility testing (broth microdilution, MIC and MFC). Type of data set: cell-based, Rhizopus oryzae. The note with it: for Selectivity Index (SI), Planktonic Cell: R. oryzae, from CC50 and MIC50 of planktonic cells; for MIC50 / MFC: Rhizopus arrhizus, 48 h; for MIC50: lowest concentration that inhibits 50% of fungal growth; for MFC: subculture in drug-free medium. The protocol:
(§1) The susceptibility of the Rhizopus species to MMV396785 (alexidine), MMV1580844, MMV642550 and MMV019724 was determined using the broth microdilution method, according to EUCAST protocols, with modifications. Posaconazole and amphotericin B were also used as reference antifungal drugs because they are commonly used for the treatment of mucormycosis. […] A standardized suspension of conidia (2 × 10^5/mL) was added to the wells and incubated for 48 h at 37 °C, in a 5% CO2 atmosphere. Fungal growth was analyzed via spectrophotometry readings at 600 nm and cell viability was assessed using the XTT reduction assay. Minimum inhibitory concentration (MIC) of each compound was defined as the lowest concentration that inhibits 50% of fungal growth, because these fungi are highly resistant to antifungal drugs and a reduction in half of their growth is relevant. […] MFC values were defined as the lowest drug concentration able to arrest fungal growth.

In data set [2] the test system is R. oryzae. In words: Antifungal drug synergy assay, Bliss independence model. It is filed as cell-based, Rhizopus oryzae. Also noted: key to Interaction: S, synergistic interaction; A, antagonist interaction; Efficacy of Combined Drugs, E obs / Efficacy of Combined Drugs, E exp: concentration or dose not given beside the values. The note with it: for Efficacy of Drugs Alone (% of Inhibition), MIC50: at MIC50; for Efficacy of Drugs Alone (% of Inhibition), ½ MIC50: at ½ MIC50; for ΔE: Eobs minus Eexp; for Efficacy of Combined Drugs, E exp: expected by Bliss calculation. The protocol:
Synergistic interactions were evaluated using the checkerboard method according to EUCAST guidelines (EUCAST 2008). R. oryzae conidia (2 × 10^5/mL) were grown in 96-well plates containing supplemented RPMI in the presence of the following selected compounds: […] An inhibition of at least 50% was defined as the cut-off for minimum inhibitory concentration (MIC). Interactions were determined by the fractional inhibitory concentration index (FICI), which was calculated using the following formula: (MIC combined/MIC drug A alone) + (MIC combined/MIC drug B alone). […] The Bliss independence model calculation was performed according to […] colleagues and Zhao and colleagues. The following formula was used to assess drug interaction: […] The results were classified as follows: synergistic effect when Eobs > Eexp; indifference when Eobs = Eexp; antagonistic effect when Eobs < Eexp.

For another data set, the system named is R. stolonifer. In words: Antifungal susceptibility testing (broth microdilution, MIC and MFC). Type of data set: cell-based, Rhizopus stolonifer. The note with it: for Selectivity Index (SI), Planktonic Cell: R. stolonifer, from CC50 and MIC50 of planktonic cells; for MIC50 / MFC: Rhizopus stolonifer, 48 h; for MIC50: lowest concentration that inhibits 50% of fungal growth; for MFC: subculture in drug-free medium. Here is the method:
as §1

Data set [3] deals with R. oryzae, R. microsporus and R. stolonifer. In words: Antifungal susceptibility testing, values stated over the three species. It is filed as cell-based. The conditions noted are these: over the three Rhizopus species. Here is the method:
as §1

Data set [4] can be described thus: Cytotoxicity assay (neutral red). Type of data set: cell-based. The note with it: human. Here is the method:
Cytotoxicity of alexidine, MMV1580844, MMV642550 and MMV019724 was performed using three cell lineages: RAW 264.7, a murine macrophage culture; A549, adenocarcinomic human alveolar basal epithelial cells; and HaCaT, a spontaneously transformed aneuploid immortal keratinocyte cell line from adult human skin. Cells were grown in DMEM (Dulbecco’s Modified Eagle’s Medium, Sigma-Aldrich, MO, USA), supplemented with 10% fetal bovine serum and incubated for 48 h at 37 °C with 5% CO2 in the presence of serially diluted concentrations (0.3–50 μM) of each compound. Cell viability was measured using the neutral red (NR) assay and quantified using a spectrophotometer at 595 nm (SpectraMax® i3x, Molecular Devices®, San José, CA, USA).

The subject of data set [5] is R. stolonifer preformed biofilm. Kind of data set: Preformed biofilm assay. It is filed as cell-based, Rhizopus stolonifer. The note with it: for Selectivity Index (SI), Preformed Biofilm: R. stolonifer, based on biofilm viability parameter. The protocol: For the preformed biofilm assay, cells were cultured as described above in the absence of the compounds. […] An additional incubation of 24 h at 37 °C was performed to evaluate the anti-biofilm activity. Evaluation of both biofilm formation and preformed biofilms was performed using three parameters as previously described. Crystal violet, safranin and XTT assays were used to analyze the overall biomass, extracellular matrix and metabolic activity, respectively.

[6] abbreviates: Table S1, mean of the four values, read-out: % of growth inhibition, Mean.
[7] abbreviates: optical density 600 nm, read-out: Growth Inhibition.
Setting [8] is: A549 alveolar basal epithelial cells, A549, 48 h.

Turning to `Oc1c(C(Nc2nc3ccccc3s2)c2ccc(OC(F)F)cc2)ccc2cccnc12` (stereo not drawn) [MMV019724], the inhibition at 5 µM in the data set on R. oryzae UCP1295 (setting [6]) came out at 69.6%. In addition, the inhibition at 5 µM with R. oryzae UCP1295 (setting [7]) came to 70%. The “Viability Inhibition (XTT)” value with R. oryzae UCP1295 was 77%. Also, in the data set on R. oryzae [1], the “Selectivity Index (SI), Planktonic Cell” value is above 79.4; the MIC50 amounted to 0.63 µM (≈ 0.283 µg/mL); the MFC is above 20 µM. Moreover, in the data set with R. oryzae [2], the “Efficacy of Drugs Alone (% of Inhibition), MIC50” value is recorded as 62.0 % of Inhibition and the “Efficacy of Drugs Alone (% of Inhibition), ½ MIC50” value was 32.5 % of Inhibition. Besides, in the data set with R. oryzae [2] (combined with Amphotericin B), the “Efficacy of Combined Drugs, E obs” value was determined as 74.8%; the Interaction result is recorded as “A”; the ΔE is given as −7.3%; the “Efficacy of Combined Drugs, E exp” value is listed as 82.1%. Also, in the data set with R. oryzae [2] (combined with Posaconazole), the “Efficacy of Combined Drugs, E obs” value stood at 58.0%; the Interaction result is recorded as “A”; the ΔE is −5.6%; the “Efficacy of Combined Drugs, E exp” value is given as 63.6%. Also, in the data set with R. stolonifer, the “Selectivity Index (SI), Planktonic Cell” value was above 40; the MIC50 came out at 1.25 µM (≈ 0.562 µg/mL); the MFC was above 20 µM. Further, the MIC in data set [3] lay within 0.63 to 1.25 µM (≈ 0.283 to 0.562 µg/mL). In addition, in data set [4] (setting [8]), the CC50 at 48 h was above 50 µM. In data set [4] (HaCaT keratinocyte cells), the CC50 at 48 h was above 50 µM. In addition, the “Selectivity Index (SI), Preformed Biofilm” value in data set [5] is given as above 40.

Turning to `CCc1nc(N)nc(N)c1C#CC(C)c1cc(OC)cc(-c2ccncc2)c1` (stereo not drawn) [MMV1580844], the inhibition at 5 µM with R. oryzae UCP1295 (setting [6]) came out at 70.2%. Besides, the inhibition at 5 µM with R. oryzae UCP1295 (setting [7]) is 71%. For the same compound, the “Viability Inhibition (XTT)” value in the data set with R. oryzae UCP1295 is reported as 88%. In the data set with R. oryzae [1], the “Selectivity Index (SI), Planktonic Cell” value is given as above 625; the MIC50 came to 0.08 µM (≈ 0.0299 µg/mL); the MFC is above 20 µM. In the data set with R. oryzae [2], the “Efficacy of Drugs Alone (% of Inhibition), MIC50” value is listed as 63.5 % of Inhibition and the “Efficacy of Drugs Alone (% of Inhibition), ½ MIC50” value is reported as 12.6 % of Inhibition. Also, in the data set with R. oryzae [2] (combined with Amphotericin B), the “Efficacy of Combined Drugs, E obs” value is on record as 60.5%; the Interaction entry is reported as “S”; the ΔE stood at 2.3%; the “Efficacy of Combined Drugs, E exp” value is 58.2%. In addition, in the data set on R. oryzae [2] (combined with Posaconazole), the “Efficacy of Combined Drugs, E obs” value came out at 60.2%; the Interaction entry is “A”; the ΔE is given as −17.4%; the “Efficacy of Combined Drugs, E exp” value is given as 77.6%. In addition, in the data set on R. stolonifer, the “Selectivity Index (SI), Planktonic Cell” value is recorded as above 625; the MIC50 was 0.08 µM (≈ 0.0299 µg/mL); the MFC is above 20 µM. The same compound showed an MIC in data set [3] of 0.08 µM (≈ 0.0299 µg/mL). Also, in data set [4] (setting [8]), the CC50 at 48 h is above 50 µM. The compound also came in with a CC50 at 48 h in data set [4] (HaCaT keratinocyte cells) above 50 µM. Moreover, the “Selectivity Index (SI), Preformed Biofilm” value in data set [5] is listed as above 312.5.

With `CCCCC(CC)CNC(=N)NC(=N)NCCCCCCNC(=N)NC(=N)NCC(CC)CCCC` (stereo not drawn) [MMV396785, Alexidine, reference compound], the values for the inhibition at 5 µM in the data set on R. oryzae UCP1295 (setting [6]) and in the data set on R. oryzae UCP1295 (setting [7]) were 70.1% and 70%, respectively. The “Viability Inhibition (XTT)” value in the data set with R. oryzae UCP1295 is listed as 89%; with R. oryzae UCP1295 (listed as alexidine), “about 89%”. Besides, the results for the “Selectivity Index (SI), Planktonic Cell” value in the data set on R. oryzae [1] (listed as Alexidina MMV396785) and with R. stolonifer (listed as Alexidina MMV396785) were above 40 and above 79.4, respectively. The MIC50 against R. oryzae [1] was determined as 1.25 µM (≈ 0.636 µg/mL); against R. stolonifer it was 0.63 µM (≈ 0.321 µg/mL). In addition, the MFC was 10 µM (≈ 5.09 µg/mL) in the data set on R. oryzae [1], 10 µM (≈ 5.09 µg/mL) in the data set with R. stolonifer and 1.25 to 10 µM (≈ 0.636 to 5.09 µg/mL) in data set [3]. For the same compound, in the data set with R. oryzae [2], the “Efficacy of Drugs Alone (% of Inhibition), MIC50” value was 67.6 % of Inhibition. The “Efficacy of Drugs Alone (% of Inhibition), ½ MIC50” value with R. oryzae [2] is recorded as 21.5 % of Inhibition. For the same compound, the “Efficacy of Combined Drugs, E obs” value in the data set with R. oryzae [2] (combined with Amphotericin B) is recorded as 85.9%; in the data set with R. oryzae [2] (combined with Posaconazole), 91.9%. The values for the Interaction entry in the data set on R. oryzae [2] (combined with Amphotericin B) and in the data set on R. oryzae [2] (combined with Posaconazole) were “S” and “A”, respectively. Also, the ΔE is on record as 1.7% in the data set on R. oryzae [2] (combined with Amphotericin B) and −4.7% in the data set on R. oryzae [2] (combined with Posaconazole). Further, the “Efficacy of Combined Drugs, E exp” value is reported as 84.2% in the data set with R. oryzae [2] (combined with Amphotericin B) and 96.6% in the data set on R. oryzae [2] (combined with Posaconazole). The minimum inhibitory concentration (MIC) in data set [3] fell in the range of 0.63 to 1.25 µM (≈ 0.321 to 0.636 µg/mL). Besides, the CC50 at 48 h in data set [4] (setting [8]) and in data set [4] (HaCaT keratinocyte cells) was above 50 µM each time. In addition, the “Selectivity Index (SI), Preformed Biofilm” value in data set [5] (listed as Alexidina MMV396785) is listed as above 20. Also, the “concentration giving significant decrease in biofilm parameters” value in data set [5] (preformed biofilm, 24 h treatment) is reported as 4 × MIC.
